Assay results as given in patent US4076816A, “Antibiotic mixture” (priority 1974, dated 1978).
Counter-ions that a name gives are not always drawn.

How the values were obtained:
Assay type in all cases: cell-based
Haemophilus influenzae = assay: combined activity in vitro, serial dilutions in chocolate agar plates arranged in form of a chess board, MIC; conditions: compound alone
Experimental: Combined activity of FL 1060 and trimethoprim against Haemophilus influenzae in vitro. Serial dilutions of FL 1060 and trimethoprim were performed in "chocolate agar"^x) plates arranged in form of a chess board. Inoculum: 3.5 μl drops containing about 10^7 cells/ml. Incubation: overnight at 36° C. ^x) Caseinhydrolysate (pancreatic) 1.3%, dextrose 0.085%, sodium chloride 0.21%, 1-cystine 0.004%, agar (Oxoid No. 1) 0.6% in distilled water, pH 7.1 after autoclaving, horse blood (defibriated) 5%, yeast extract (Difco) 1.3% (membrane filtered) added at 80° C.

[1] = system: Escherichia coli (strain Leo HA2); assay: in vitro serial dilution test, minimum inhibitory concentration; conditions: 10^6 cells/ml, over night at 37° C, compound alone
Experimental: The in vitro activity of FL 1060, trimethoprim, and combinations of the two compounds against Escherichia coli (strain Leo HA2) was determined in a serial dilution test. […] Minimum inhibitory concentrations (MIC) were taken as the lowest concentrations of either of the compounds alone or of a combination of both at which no visible growth occurred.

[2] = system: Escherichia coli (Leo HA2); assay: serial dilution test (technique of Example 1), medium with addition of 10 g of sodium chloride per liter, MIC; conditions: medium + 10 g sodium chloride per liter, compound alone
Experimental: (§1) A fluid medium containing:
(§2) and containing the appropriate concentrations of the compounds, or of the combinations of them was inoculated with 10^6 cells/ml organisms and incubated over night at 37° C. Minimum inhibitory concentrations (MIC) were taken as the lowest concentrations of either of the compounds alone or of a combination of both at which no visible growth occurred.

[3] = system: Klebsiella pneumoniae (Leo HE); assay: as above; conditions: medium + 10 g sodium chloride per liter, compound alone
Experimental: as §1, §2

[4] = system: Salmonella typhimurium (Leo HL2); assay: as above; conditions: Salmonella enterica, medium + 10 g sodium chloride per liter, compound alone
Experimental: as §1, §2

[5] = strain IX14, overnight at 36° C
[6] = strain IX15, overnight at 36° C

| MIC (Haemophilus influenzae; strain IX5, overnight at 36° C) | MIC (Haemophilus influenzae; strain IX6, overnight at 36° C) | MIC (Haemophilus influenzae; [5]) | MIC (Haemophilus influenzae; [6]) | MIC [1] | MIC [2] | MIC [3] | MIC [4] | Compound |
| --- | --- | --- | --- | --- | --- | --- | --- | --- |
| 1 µg/mL | 3.2 µg/mL | > 100 µg/mL | > 100 µg/mL | 100 µg/mL | > 50 µg/mL | 1.6 µg/mL | > 100 µg/mL | COc1cc(Cc2cnc(N)nc2N)cc(OC)c1OC [Trimethoprim, 2,4-diamino-5(3,4,5-trimethoxybenzyl)-pyrimidine] |
| > 100 µg/mL | > 100 µg/mL | > 100 µg/mL | > 100 µg/mL | 0.016 µg/mL | 50 µg/mL | 0.5 µg/mL | > 100 µg/mL | CC1(C)S[C@@H]2[C@H](N=CN3CCCCCC3)C(=O)N2[C@H]1C(=O)O [FL 1060, 6-[(hexahydro-1H-azepin-1-yl)-methyleneamino]-penicillanic acid, hydrochloride, dihydrate] |
